In patent publication US8822430B2 (Gilead Sciences, Inc., priority 2009, dated 2014) one finds EC50 data, which are given here for 42 molecules.

In the assay the test system is HCV 1b RLuc cells (dicistronic genotype 1b Con1 replicon). The experiment in a line: Renilla luciferase (RLuc)-based HCV replicon reporter assay. As to conditions: Hepatitis C virus, 72 h, HCV 1b RLuc replicon, 72 hours; read-out: Activity (antiviral potency [EC50]). Format: cell-based, HCV genotype 1b. In a few lines:
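EC50 values were calculated by non-linear regression of Renilla luciferase signal from lysed cells after 72 h of compound exposure. Cells harboured a genotype 1b Con1 dicistronic replicon encoding RLuc. Compounds were serially diluted in DMSO from 10 mM stocks into culture media.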

As to `COC(=O)N[C@H](C(=O)N1CC2(CC2)C[C@H]1c1ncc(-c2ccc3cc(-c4ccc(-c5cnc([C@@H]6[C@H]7CC[C@H](C7)N6C(=O)[C@@H](NC(=O)OC)C6CCOCC6)[nH]5)cc4)ccc3c2)[nH]1)C1CCOCC1`, the EC50 stood at 0.0255 nM. In the case of `COC(=O)N[C@@H](C)C(=O)N1CCC[C@H]1c1ncc(-c2ccc3cc(-c4ccc5cc(-c6cnc([C@@H]7[C@H]8CC[C@H](C8)N7C(=O)[C@H](C)NC(=O)OC)[nH]6)ccc5c4)ccc3c2)[nH]1` it was 2.61 nM. For the molecule `COC(=O)N[C@H](C(=O)N1CCC[C@H]1c1ncc(-c2ccc(C#Cc3ccc(-c4cnc([C@@H]5CN(C(=O)OC)CN5C(=O)[C@@H](NC(=O)OC)C(C)C)[nH]4)cc3)cc2)[nH]1)C(C)C`, the EC50 was 0.0187 nM.

Turning to `COC(=O)N[C@H](C(=O)N1CCC[C@H]1c1ncc(-c2ccc3cc(-c4ccc(-c5cnc([C@@H]6CCCN6C(=O)[C@@H](NC(=O)OC)C6Cc7ccccc7C6)[nH]5)cc4)ccc3c2)[nH]1)C(C)C`, the EC50 turned out to be 0.0104 nM. As for `CON[C@H](C(=O)N1CCC[C@H]1c1ncc(-c2ccc(-c3ccc4cc(-c5cnc([C@@H]6CCCN6C(=O)[C@@H](NC(=O)OC)C(C)C)[nH]5)ccc4c3)cc2)[nH]1)C(C)C`, the EC50 came to 0.525 nM. With `COC(=O)N[C@H](C(=O)N1CCC[C@H]1c1ncc(-c2ccc(-c3ccc4cc(-c5cnc([C@@H]6CCCN6C(=O)[C@@H](NC(=O)OC)C(C)C)[nH]5)ccc4c3)cc2)[nH]1)C(C)C`, the EC50 stood at 0.0047 nM. In the case of `COC(=O)N[C@H](C(=O)N1CCC[C@H]1c1ncc(-c2ccc3c(c2)S(=O)(=O)c2ccc(-c4cnc([C@@H]5CCCN5C(=O)[C@@H](NC(=O)OC)C(C)C)[nH]4)cc2S3(=O)=O)[nH]1)C(C)C`, the EC50 turned out to be 10.3 nM. In the case of `COC(=O)N[C@H](C(=O)N1CCC[C@H]1c1ncc(-c2ccc(C#Cc3ccc(-c4cnc([C@H]5N(C(=O)[C@@H](NC(=O)OC)C(C)C)CSC5(C)C)[nH]4)cc3)cc2)[nH]1)C(C)C`, the EC50 came to 0.0424 nM. As for `COC(=O)N[C@H](C(=O)N1CCC[C@H]1c1ncc(-c2ccc(-c3ccc(-c4cnc([C@@H]5CCCN5C(=O)[C@@H](NC(=O)OC)C(C)C)[nH]4)cc3)cc2)[nH]1)C(C)C`, the EC50 was 0.0719 nM. For `COC(=O)N[C@H](C(=O)N1CCC[C@H]1c1ncc(C23CCC(c4cccc(-c5cnc([C@@H]6CCCN6C(=O)[C@H](NC(=O)OC)C(C)C)[nH]5)c4)(CC2)CC3)[nH]1)C(C)C` the value was ≥ 44.4 nM. In the case of `COC(=O)N[C@H](C(=O)N1CCC[C@H]1c1ncc(-c2ccc(-c3ccc(-c4cnc([C@@H]5[C@H]6CC[C@H](C6)N5C(=O)[C@@H](NC(=O)OC)C(C)C)[nH]4)cc3)cc2)[nH]1)C(C)C` it was 0.0073 nM. In the case of `COC(=O)N[C@@H](CCOCC(F)(F)F)C(=O)N1CCC[C@H]1c1ncc(-c2ccc(-c3ccc(-c4cnc([C@@H]5CCCN5C(=O)[C@H](CCOCC(F)(F)F)NC(=O)OC)[nH]4)cc3)cc2)[nH]1`, the EC50 was found to be 0.0244 nM.

Consider `COC(=O)N[C@@H](CCC(F)(F)F)C(=O)N1CCC[C@H]1c1ncc(-c2ccc(-c3ccc(-c4cnc([C@@H]5CCCN5C(=O)[C@@H](NC(=O)OC)C(C)C)[nH]4)cc3)cc2)[nH]1`, for which the half-maximal effective concentration (EC50) is 0.04 nM. For `COC(=O)N[C@H](C(=O)N1CC2(CC2)C[C@H]1c1ncc(-c2ccc(-c3ccc4cc(-c5cnc([C@@H]6CC7(CC7)CN6C(=O)[C@@H](NC(=O)OC)C(C)C)[nH]5)ccc4c3)cc2)[nH]1)C(C)C` the value was 0.0048 nM; for `COC(=O)N[C@H](C(=O)N1CCC[C@H]1CNC(=O)c1ccc(-c2ccc(-c3cnc([C@@H]4CCCN4C(=O)[C@@H](NC(=O)OC)C(C)C)[nH]3)cc2)cc1)C(C)C`, 0.0915 nM. For `COC(=O)N[C@H](C(=O)N1CCC[C@H]1c1ncc(-c2ccc3cc(-c4ccc(-c5ccc6nc([C@@H]7[C@H]8CC[C@H](C8)N7C(=O)[C@@H](NC(=O)OC)C(C)C)[nH]c6c5)cc4)ccc3c2)[nH]1)C(C)C` the value was 0.077 nM. In the case of `COC(=O)N[C@H](C(=O)N1CCC[C@H]1c1ncc(-c2ccc(-c3cccc4c(-c5ccc(-c6cnc([C@@H]7CCCN7C(=O)[C@@H](NC(=O)OC)C(C)C)[nH]6)cc5)cccc34)cc2)[nH]1)C(C)C` it was 26.7 nM. In the case of `COC(=O)N[C@H](C(=O)N1CCC[C@H]1c1ncc(-c2ccc3cc(-c4ccc5cc(-c6cnc([C@@H]7CCCN7C(=O)[C@@H](NC(=O)OC)C(C)C)[nH]6)ccc5c4)ccc3c2)[nH]1)C(C)C`, the EC50 came out at 0.0239 nM. For `COC(=O)N[C@H](C(=O)N1CCC[C@H]1c1ncc(-c2ccc3cc(-c4ccc(-c5cnc([C@@H]6C[C@@H](c7ccccc7)CN6C(=O)[C@@H](NC(=O)OC)C(C)C)[nH]5)cc4)ccc3c2)[nH]1)C(C)C`, the EC50 worked out at 0.0724 nM. In the case of `COC(=O)N[C@H](C(=O)N1CCC[C@H]1c1ncc(-c2ccc3c(c2)C(F)(F)c2cc(-c4ccc5nc([C@@H]6CCCN6C(=O)[C@@H](NC(=O)OC)C(C)C)[nH]c5c4)ccc2-3)[nH]1)C(C)C` it was < 0.0023 nM. In the case of `COC(=O)N[C@H](C(=O)N1Cc2ccccc2C1c1ncc(-c2ccc(-c3ccc(-c4cnc([C@@H]5CCCN5C(=O)[C@@H](NC(=O)OC)C(C)C)[nH]4)cc3)cc2)[nH]1)C(C)C` (stereo partly drawn) it was 0.0414 nM; in that of `COC(=O)N[C@H](C(=O)N1CC2(CC2)C[C@H]1c1ncc(-c2ccc3cc(-c4ccc(-c5cnc([C@@H]6[C@H]7CC[C@H](C7)N6C(=O)[C@@H](NC(=O)OC)C6CCOCC6)[nH]5)cc4)ccc3c2)[nH]1)C(C)C`, 0.0115 nM; in that of `COC(=O)N[C@H](C(=O)N1CCC[C@H]1c1ncc(-c2ccc3c(c2)COCc2cc(-c4cnc([C@@H]5CCCN5C(=O)[C@@H](NC(=O)OC)C(C)C)[nH]4)ccc2-3)[nH]1)C(C)C`, 0.0327 nM. In the case of `COC(=O)N[C@H](C(=O)N1CCC[C@H]1c1ncc(-c2ccc3cc(-c4ccc(-c5cnc([C@@H]6C[C@H](CN(C)C)CN6C(=O)[C@@H](NC(=O)OC)C(C)C)[nH]5)cc4)ccc3c2)[nH]1)C(C)C` it was 0.125 nM; in that of `COC(=O)N[C@H](C(=O)N1CCC[C@H]1c1ncc(-c2ccc(C#Cc3ccc(-c4cnc([C@@H]5CNCCN5C(=O)[C@@H](NC(=O)OC)C(C)C)[nH]4)cc3)cc2)[nH]1)C(C)C`, 0.201 nM; in that of `COC(=O)N[C@H](C(=O)N1CCC[C@H]1c1ncc(C#CC#Cc2cnc([C@@H]3CCCN3C(=O)[C@@H](NC(=O)OC)C(C)C)[nH]2)[nH]1)C(C)C`, 1.33 nM. As to `COC(=O)NC(C(=O)N1CCC[C@H]1c1ncc(-c2cc3sc(-c4ccc5nc([C@@H]6CCCN6C(=O)[C@@H](NC(=O)OC)C(C)C)[nH]c5c4)cc3s2)[nH]1)C(C)C` (stereo partly drawn), the EC50 was 0.0229 nM.

Consider `COC(=O)N[C@H](C(=O)N1CCC[C@H]1c1ncc(-c2ccc3c4ccc(-c5cnc([C@@H]6CCCN6C(=O)[C@@H](NC(=O)OC)C(C)C)[nH]5)cc4[s+]([O-])c3c2)[nH]1)C(C)C`, for which the EC50 came to 0.0322 nM. Take `CNC(=O)N1C[C@@H](c2ncc(-c3ccc(C#Cc4ccc(-c5cnc([C@@H]6CCCN6C(=O)[C@@H](NC(=O)OC)C(C)C)[nH]5)cc4)cc3)[nH]2)N(C(=O)[C@@H](NC(=O)OC)C(C)C)C1`: the EC50 turned out to be 0.245 nM. For `COC(=O)N[C@H](C(=O)N1C[C@@H](C#N)C[C@H]1c1ncc(-c2ccc(C#Cc3ccc(-c4cnc([C@@H]5CC6(CC6)CN5C(=O)[C@@H](NC(=O)OC)C(C)C)[nH]4)cc3)cc2)[nH]1)C(C)C` the value was 0.0149 nM; for `COC(=O)N[C@H](C(=O)N1CC[C@H]1c1nc2ccc(-c3ccc(-c4ccc(-c5cnc([C@@H]6CCCN6C(=O)[C@H](NC(=O)OC)c6ccccc6)[nH]5)cc4)cc3)cc2[nH]1)C(C)C`, 0.0195 nM.

Consider `COC(=O)N[C@H](C(=O)N1CCC[C@H]1c1ncc(-c2ccc(-c3ccc(-c4cnc([C@@H]5COCCN5C(=O)[C@@H](NC(=O)OC)C(C)C)[nH]4)cc3)cc2)[nH]1)C(C)C`, for which the concentration giving a half-maximal response (EC50) was 0.0214 nM. `COC(=O)N[C@H](C(=O)N1CCC[C@H]1C(=O)Nc1cccc(-c2ccc(-c3cnc([C@@H]4CCCN4C(=O)[C@@H](NC(=O)OC)C(C)C)[nH]3)cc2)c1)C(C)C`: the EC50 amounted to 0.118 nM. For `COC(=O)NC(C(=O)N1CCC[C@H]1c1ncc(-c2cc3c(C)c4sc(-c5cnc([C@@H]6CCCN6C(=O)C(NC(=O)OC)c6ccccc6)[nH]5)cc4c(C)c3s2)[nH]1)c1ccccc1` (stereo partly drawn) the value was 0.0214 nM. As to `COC(=O)N[C@H](C(=O)N1CCC[C@H]1c1ncc(C(=O)N2CCN(c3ccc(-c4cnc([C@@H]5CCCN5C(=O)[C@@H](NC(=O)OC)C(C)C)[nH]4)cc3)CC2)[nH]1)C(C)C`, the EC50 was > 44.4 nM. As to `COC(=O)N[C@H](C(=O)N1CCC[C@H]1c1ncc(-c2ccc(-c3ccc(-c4cnc([C@@H]5CC[C@H]6CN(C(=O)OC)CC(=O)N65)[nH]4)cc3)cc2)[nH]1)C(C)C`, the concentration giving a half-maximal response (EC50) was 0.0664 nM. For `COC(=O)N[C@H](C(=O)N1CC2(CC2)C[C@H]1c1ncc(-c2ccc3cc(-c4ccc(-c5cnc([C@@H]6C[C@H](C#N)CN6C(=O)[C@@H](NC(=O)OC)C(C)(C)C)[nH]5)cc4)ccc3c2)[nH]1)C(C)C` the value was 0.0127 nM; for `COC(=O)N[C@H](C(=O)N1CCC[C@H]1c1ncc(-c2ccc3c(c2)COc2c-3ccc3cc(-c4cnc([C@@H]5CCCN5C(=O)[C@@H](NC(=O)OC)C(C)C)[nH]4)ccc23)[nH]1)C(C)C`, 0.0044 nM. In the case of `COC(=O)N[C@H](C(=O)N1CCC[C@H]1c1ncc(-c2ccc(-c3ccc4cc(-c5cnc([C@@H]6[C@H]7CC[C@H](C7)N6C(=O)[C@@H](NC(=O)OC)C(C)C)[nH]5)ccc4c3)cc2)[nH]1)C(C)C` it was 0.011 nM; in that of `COC(=O)NC(C(=O)N1CCC[C@H]1c1ncc(-c2cc3c(OC)c4sc(-c5cnc([C@@H]6CCCN6C(=O)C(NC(=O)OC)c6ccccc6)[nH]5)cc4c(OC)c3s2)[nH]1)c1ccccc1` (stereo partly drawn), 0.0262 nM; in that of `COC(=O)N[C@H](C(=O)N1CCC[C@H]1C(=O)NCc1ccc(-c2ccc(-c3cnc([C@@H]4CCCN4C(=O)[C@@H](NC(=O)OC)C(C)C)[nH]3)cc2)cc1)C(C)C`, 1.4 nM.

As for `COC(=O)N[C@H](C(=O)N1C[C@@H](C#N)C[C@H]1c1ncc(-c2ccc(C#Cc3ccc(-c4cnc([C@@H]5CC(F)(F)CN5C(=O)[C@@H](NC(=O)OC)C(C)C)[nH]4)cc3)cc2)[nH]1)C(C)C`, the EC50 is 0.018 nM.
